We go through two compounds from patent US6406709B1, “Method for inhibiting nematocyst discharge” (Nidaria Technology Ltd., priority 1997, dated 2002).

Each structure is given as a SMILES string.

The test system of experiment [1] is Auzelia nematocysts. Briefly: Nematocyst discharge into human skin slides. The settings on record: N=3 test, 3 each control; control discharged less than 100.
Experimental: (§1) Normal human skin (HS) was obtained from neonatal elective circumcision. The skin was immediately placed into sterile phosphate buffered saline (PBS) containing antibiotic/antimycotic. The tissue was frozen embedded in Tissue-Tek™. The tissue was then sectioned into 50 μm sections using a cryostat. The sections were attached to glass slides coated with polylysine and maintained at −70° C. until time of use. All sections were examined to ensure that they were perpendicular to the plane of the epidermis, exposing cross-sections of epidermis, dermis and sub-cutaneous tissue.
(§2) The slides prepared and frozen as described above were thawed at room temperature. The slides were submersed in sea water for approximately 10 seconds and then attached to jellyfish or sea anemones tentacles for approximately 10 seconds. The tentacles were detached, the slides washed two times with PBS, and blocked using 5% Fetal Bovine serum (FBS), and 0.1% Triton X100 in PBS (blocking solution). All washing and incubation steps were conducted on a tilting shaker at room temperature. The slides were incubated in 10 mL of blocking solution containing a 1:2,500 dilution of the anti-toxin antibody for one hour. After incubation, the slides were washed five times for five minutes each wash with 100 mL of 0.1% TritonX100 in PBS (Wash solution). […]
In experiment [2] the test system is nematocysts of jellyfish or sea anemone tentacles. Briefly: Artemia adhesion/paralysis test of nematocyst discharge by tentacle fragments in sea water. Format: cell-based. Here is the method:
To initially test inhibition of nematocyst discharge, the following test was performed. It is typical behavior for jellyfish or sea anemone tentacles to adhere to and paralyze newly hatched nauplii of Artemia sp. The adhesion and subsequent paralysis is characteristic of nematocyst discharge by the tentacles. Small 2 to 3 mm fragments of jellyfish or sea anemone tentacles were prepared and placed in a 12-well plate containing filtered sea water. The tentacle fragments were washed by changing the filtered sea water three times. One mL of filtered sea water was left in each well after the final wash. […] The 6 wells without the antihistamine served as controls. Ten Artemia sp. were added to each well in a total volume of between 50 and 100 uL of filtered sea water. After 2 minutes, the number of attached or paralyzed Artemia in each well was measured.

The subject of experiment [3] is Chrysaora quinquecirrha nematocysts. Briefly: Nematocyst discharge into human skin slides, Monterey Bay Aquarium. To be noted: glycerol plus 0.2% diphenhydramine, exposure 10 to 15 seconds.
Experimental: as §1, §2
The test system of experiment [4] is Pelagia noctiluca nematocysts. Described as above. The settings on record: glycerol plus 0.2% diphenhydramine, exposure 10 to 15 seconds.
Experimental: as §1, §2
Experiment [5] concerns isolated nematocyst capsules. The settings on record: 50 mM CaCl2; cited from earlier work.

Take `CN(C)CCOC(c1ccccc1)c1ccccc1.Cl` [diphenhydramine, diphenhydramine hydrochloride]: in experiment [1], the “decrease in nematocyst discharge” value is reported as “ten-fold decrease”. Further, the “effect on the number of Artemia paralyzed by nematocysts” value in experiment [2] (0.02% in sea water, versus sea water alone) is listed as “significantly decreased”. Also, the “Artemia paralyzed by nematocysts, all wells together” value in experiment [2] (out of 64 Artemia, 50 of 64 without antihistamine) is 11. In addition, in experiment [3], the “decrease of nematocyst discharge” value is on record as 2.5-5 fold. The “reduction in nematocyst discharged” value in experiment [4] was “significant reduction”.

As to `[Ca+2].[Cl-].[Cl-]` [CaCl2], the “discharge of isolated nematocyst capsules” value in experiment [5] is reported as “do not discharge”.
